# Ends that are not written are not given here.
# Columns and labels:
# [1] = test system: 5 mm-diameter excisional skin wounds; assay: Quantitative assessment of wound closure, tissue regeneration and tensile strength of 5 mm excisional skin wounds; format: in vivo, mouse
# Excerpt: ACT peptide (n=12) and control (n=8) 5 mm-diameter excisional skin wounds were generated on adult mice as described above. Quantitative assessments of wound closure rate, counts of regenerated hair follicles and tensile strength measurements were then undertaken on the wounded skin at time points up to 90 days following the initial insult. […] Similarly, at 10 days, when most wounds were nearing completion of closure, a highly significant difference was still maintained such that ACT peptide-treated wounds were on average 43% smaller than control wounds. […] Studies were undertaken of the mechanical properties of healed 5 mm diameter excisional wounds at 1 month and 3 months following injury. For mechanical property measurements, the skin samples were obtained after sacrificing the animal and evaluated using a MTS 858 Mini Bionix (MTS Systems Corporation, MN, USA) equipped with a 5 kg load cell. During measurement the skin sample was extended to break at a rate of 0.5 mm/s. Force and extension was measured at break. The tensile strength (stress) and extension to break (strain) was calculated as follows, Stress (N/mm^2)=Force at break (N)/cross-sectional area of sample (mm^2). Strain (%)=[Increase in length at break (mm)/Original length (mm)]×100. Stress and strain calculations for each wounded skin sample was normalized to a normal skin sample from a nearby area collected from the same animal. […] At 3 months, normalized stress to break of peptide-treated wound skin was on average double that of control wounded skin, although the high variance within the treatment group precluded significant mean separation from the control. […] Further, significant improvements in extensibility of peptide-treated wounds were found. […] By contrast, control wounds at 3 months remained only 60% as extensible as normal skin.
# brain penetration injury = assay: Penetration injury of brain in adult rat with hollow fiber membrane (HFM) implant; format: in vivo
# Protocol: (b) and (c) show low magnification survey views of sections of brain tissue (cortex) surrounding hollow fiber membrane (HFM) implants filled with ACT peptide (100 μM) plus vehicle gel (b) or collagen vehicle gel alone as control (c). In the control tissue (c), a high density of immunolabeled GFAP-positive astrocytes is observed near the site of injury caused by the HFM. The density of these cells appears to diminish slightly distal from the injury. […] Indeed, the levels of GFAP positive cells are not dissimilar to those seen in normal uninjured brain tissue. The regions of tissue within the white rectangles in figures (b) and (c) are shown at higher magnification in (d) and (e) respectively. In the brain injury treated by ACT peptide (d), it can be seen that GFAP-positive astrocytes are not only less numerous, but are also smaller than those seen in the control injury (e).
# (a) and (b) show low magnification survey views of sections of brain tissue (cortex) surrounding HFM implants (implant or injury border is shown by arrows) filled with control collagen vehicle gel or ACT peptide plus vehicle gel at 1 week following brain penetration injury. In the control tissue (b), a high density of immunolabeled GFAP-positive astrocytes and a low density of NeuN immunolabeled neurons are observed near the site of injury caused by the HFM. The density of these cells appears to diminish and increase, respectively, distal from the HFM. […] The areas in (a) and (b) proximal to the HFMs are shown at high magnification views in (c) and […], respectively. Again, in the control tissue (d) a striking increase in the density of GFAP-positive astrocytes and a reduced density of NeuN-positive neurons is observed compared to ACT peptide treated tissue (c). A complementary pattern is observed near the HFM containing ACT peptide, with NeuN positive neurons predominating over astrocytes (c).
# Anesthetized adult rats were positioned in a stereotaxic apparatus. A midline incision was made on the scalp to expose the skull. A stereotaxic drill was sighted 2 mm posterior to the bregma and 2 holes were drilled with a 1 mm spherical bit, each at 2.5 mm to the right and left of the bregma, and 3.5 mm below the dura. A cerebral lesion was made by inserting an 18-gauge needle. The coordinates were determined from the atlas by Paxinos and Watson (1986). The hollow fiber membrane (HFM) was inserted in the hole and external skin sutures were placed to cover the stab. The ACT peptide was dissolved at 100 μM concentration in a 2% collagen vehicle solution contained within the HFM. […] Reactive astrocytosis associated with inflammation and subsequently with glial scar formation follows a well characterized time course after brain injury in rodent models (Norenberg, 1994; Fawcett and Asher, 1999). […]
# [2] = test system: 5 mm diameter excisional skin wounds; assay: Small (5 mm) excisional skin wounds in adult mice, ACT 1 to ACT 5; format: in vivo, mouse; conditions: for closure, inflammation, healing and scarring of injuries: 100 μM in pluronic gel, 50-60 μl, applied at 0 and 24 hours, 240 hour time course (10 days), vs gel without peptide; for wound closure rates (area of open wound as % of unclosed wound relative to the control): ~5 mice per condition, Mann-Whitney U-test over the time course
# Protocol: Anesthetized adult mice had 2 small (5 mm diameter) excisional skin wounds made by fine surgical scissors on the neck and (upper) back. The boundaries of the injuries were demarcated by a 5 mm wide circular template cut in a plastic sheet. 50-60 μl of a solution of 20% pluronic gel containing either no (control) or one of the ACT peptides (ACT 2-SEQ ID NO: 1, ACT 1-SEQ ID NO:2, ACT 3-SEQ ID NO:3, ACT 4-SEQ ID NO:4, ACT 5-SEQ ID NO:5) dissolved at concentrations of 100 μM were then applied to the excisional injuries. Control or ACT peptide-containing gel was applied subsequently 24 hours after the initial application. No further applications of control and ACT peptide-containing gel were made after the second application. […] Note that the same wound on the same animal is shown at the different time points during the healing time course. Anesthetized adult mice had 2 small (5 mm diameter) excisional skin wounds made by fine surgical scissors on the neck and (upper) back. The boundaries of the injuries were demarcated by a 5 mm wide circular template cut in a plastic sheet. 50-60 μl of a solution of 30% pluronic gel containing either no (control) or one of the ACT peptides (ACT 2—SEQ ID NO:1, ACT 1—SEQ ID NO:2, ACT 3—SEQ ID NO:3, ACT 4—SEQ ID NO:4, ACT 5—SEQ ID NO:5) dissolved at concentrations of 100 μM were then applied to the excisional injuries. Control or ACT peptide-containing gels were applied subsequently 24 hours after the initial application. No further applications of control and ACT peptide-containing gel were made after the second application. […] Note that the same wound on the same animal is shown at the different time points during the healing time course. The area of open wound was measured during the time course using NIH image according to standard protocols on multiple (˜5 mice per control or treatment condition) adult mice. These individual area measurements were then normalized to (i.e., divided by) the average area measured for the control injuries for a given time point, multiplied by 100 to give a % of unclosed wound relative to the control and then plotted against time. A Mann-Whitney U-test was used to statistically assess the effects of ACT peptides over the time course. […] These treatments provided results with significant p values.
# NIH-3T3 cells = assay: In vitro scratch injury of NIH-3T3 monolayer (repopulation, PCNA immunolabeling); format: cell-based; conditions: 30 μM, 24 hours after scratch
# Protocol: An NIH-3T3 monolayer was pre-treated with ACT 1 peptide (SEQ ID NO:2) for 24 hrs, and “scratch-injured” with a p200 pipette tip. The “scratch injury” was subsequently allowed to “heal” for 24 hours in the presence of (a, b) 30 μM ACT 1 peptide (SEQ ID NO:2), (c, d) 30 μM non-active control peptide (SEQ ID NO: 55), or (e, f) vehicle control solution containing no ACT peptide or control peptide. […] The repopulation of the “scratch injury” occurs in part via migration of the transformed cells crawling into the “scratch injury” area. Figures (b), (d) and (f) show proliferating cell nuclear antigen (PCNA) immunolabeling of cells in the “scratch injury” or at the injury edge.
# NIH-3T3 fibroblasts were “scratch injured” and subject to the continuous presence of 30 μM ACT 1 peptide (SEQ ID NO:2) for 24 hours or the control conditions as outlined in FIG. 2. […] The cells have been labeled with fluorescent phalloidin to aid visualization. ACT peptide-treated cells show low levels of repopulation of the scratch injury area (white double headed arrows).
# NIH-3T3 cells were grown over 2-3 days until forming a near-confluent monolayer on a tissue culture dish according to standard protocols and the monolayer was then pre-treated with ACT 1 peptide (SEQ ID NO:2) for 24 hrs, and “scratch-injured” with a p200 pipette tip. The “scratch injury” was subsequently allowed to repopulate for 24 hours in the presence of 30 μM ACT 1 peptide (SEQ ID NO:2) dissolved in the culture media (FIG. 2a, b) or in presence of two control conditions (FIG. 2c-f). In the first control condition, the “scratch-injured” cells were allowed to repopulate for 24 hours in the presence of a non-active control peptide (as in FIG. 1) dissolved in the culture media at a concentration of 30 μM (FIG. 2c, d). In the second control condition, phosphate buffered saline (PBS) was added to the culture media and the “scratch-injured” cells were allowed to repopulate in the presence of this vehicle control solution containing no ACT peptide or control peptide (FIG. 2e, f). […] The repopulation of the “scratch injury” occurs in part via migration of the transformed cells crawling into the “scratch injury” area. Figures (FIGS. 2b, d, and f) show proliferating cell nuclear antigen (PCNA) immunolabeling of cells in the “scratch injury” or at the injury edge.
# The cells were labeled with fluorescent phalloidin to aid visualization. ACT peptide-treated cells show low levels of repopulation of the scratch injury area (white double headed arrows).
sequence,measurement,setting,value
ACT peptide: alpha Connexin carboxy-Terminal polypeptide used in brain injury and Example 4 studies; sequence not stated there (RQPKIWFPNRRKPWKKRPRPDDLEI; not fully specified (N-terminus)),strain (extensibility) required to break wounds,"[1]; at 1 month, vs control wounds",modestly improved
same,"strain to break of peptide-treated wound skin, normalized to normal skin","[1]; at 3 months, normalized to normal skin, control wounds 60%",90%
same,normalized stress to break of wound skin,"[1]; at 3 months, vs control wounded skin, not significant (high variance)",double
same,increase in the number of regenerated hair follicles per unit area of the healed wound over control wounds,[1]; at 10 days,3.2 fold
same,"wound size, smaller than control wounds (average)",[1]; at 10 days,43%
same,wound closure relative to control wounds,"[1]; within 24 hours of peptide treatment, n=12 vs control n=8",significantly enhanced
same,density of GFAP-positive astrocytes adjacent the HFM,"brain penetration injury; 100 μM in 2% collagen vehicle within HFM, 1 week after injury, vs collagen vehicle gel",much lower density
same,neurons in the process of fission,"brain penetration injury; 100 μM in HFM, 1 week, high magnification view, relative to the control",high frequency of neurons in the process of fission
same,numbers of NeuN immunolabeled neurons proximal to the HFM,"brain penetration injury; 100 μM in HFM, 1 week, vs control",higher numbers
same,size of GFAP-positive astrocytes,"brain penetration injury; 100 μM in HFM, 1 week, vs control injury",smaller
"KARSDDLSV [ACT 5, 9 amino acids of the carboxy terminus of human Cx40]","closure, inflammation, healing and scarring of injuries",[2],"closed faster, were significantly less inflamed in appearance, healed faster and scarred less"
same,wound closure rates (area of open wound as % of unclosed wound relative to the control),[2]; 100 μM,significantly improved wound closure rates
PSSRASSRASSRPRPDDLEI [ACT 2],"closure, inflammation, healing and scarring of injuries",[2],"closed faster, were significantly less inflamed in appearance, healed faster and scarred less"
same,wound closure rates (area of open wound as % of unclosed wound relative to the control),[2]; 100 μM,significantly improved wound closure rates
RPRPDDLEV [ACT 3],"closure, inflammation, healing and scarring of injuries",[2],"closed faster, were significantly less inflamed in appearance, healed faster and scarred less"
same,"size of improvement in wound closure over the control, compared among peptides","[2]; 100 μM, over the time course",most pronounced improvements over the control
same,wound closure rates (area of open wound as % of unclosed wound relative to the control),[2]; 100 μM,significantly improved wound closure rates
RPRPDDVPV [ACT 4],"closure, inflammation, healing and scarring of injuries",[2],modest improvement in healing over the control
same,wound closure rates (area of open wound as % of unclosed wound relative to the control),[2]; 100 μM,"more modest, although consistent, improvement"
"RQPKIWFPNRRKPWKIELDDPRPR (not fully specified (N-terminus)) [non-active control peptide, reference compound]",proliferating cell nuclear antigen (PCNA) immunolabeling of cells in the scratch injury or at the injury edge,NIH-3T3 cells,brightly labeled proliferating cells seen
same,repopulation of the scratch injury area,NIH-3T3 cells; 24 hrs pre-treatment,large numbers of cells
